{"source": "patent US20040018561A1", "about": "“Peptide compounds and their use as protease substrates” (priority 2002, published 2004)", "key": {"MMP-1": {"target": "T1, MMP-1 (Homo sapiens, UniProt P03956)", "T1 sequence (P03956 100-469)": "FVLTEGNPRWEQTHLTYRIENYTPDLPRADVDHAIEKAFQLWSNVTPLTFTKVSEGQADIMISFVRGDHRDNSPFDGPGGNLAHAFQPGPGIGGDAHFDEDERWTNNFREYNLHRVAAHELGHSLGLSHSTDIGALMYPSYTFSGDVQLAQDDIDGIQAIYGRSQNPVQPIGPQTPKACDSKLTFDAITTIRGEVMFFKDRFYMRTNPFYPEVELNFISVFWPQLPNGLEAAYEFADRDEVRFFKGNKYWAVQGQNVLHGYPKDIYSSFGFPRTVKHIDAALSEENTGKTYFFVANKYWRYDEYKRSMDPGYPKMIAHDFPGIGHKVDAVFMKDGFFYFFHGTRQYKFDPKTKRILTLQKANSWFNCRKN", "test": "Km and kcat/Km of substrates with MMP-1", "assay_type": "biochemical", "conditions": "summary of Table 1"}, "MMP-7": {"target": "T2, MMP-7 (Homo sapiens, UniProt P09237)", "T2 sequence (P09237 95-267)": "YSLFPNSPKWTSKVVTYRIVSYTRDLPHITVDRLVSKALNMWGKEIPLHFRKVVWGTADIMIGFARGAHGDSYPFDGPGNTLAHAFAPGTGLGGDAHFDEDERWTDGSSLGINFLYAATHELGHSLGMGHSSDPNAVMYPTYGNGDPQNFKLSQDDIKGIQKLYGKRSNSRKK", "test": "Km and kcat/Km of substrates with MMP-7", "assay_type": "biochemical", "conditions": "summary of Table 1"}, "[1]": {"conditions": "octanol/water; Tao et al., J. Mol. Model. 1999; cited from earlier work"}}, "note": "*1 amine or outer side, *2 acyl side, *3 side chain or, on linkers, in order; H or OH if unused. Where a SMILES comes first, the peptide text is derived from it. [ ]: non-standard residue; d: D form. The star is where a group is joined. Dnp = O=[N+]([O-])c1ccc(*)c([N+](=O)[O-])c1; X2 = O=C([C@H](CCCCOCc1ccccc1)N[*:1])[*:2]; X1 = O=C([C@H](CCCCOc1ccccc1)N[*:1])[*:2]; Mca = COc1ccc2c(CC(=O)*)cc(=O)oc2c1; Dap = NC[C@H](N)C(=O)O", "data": [{"smiles": "COc1ccc2c(CC(=O)N[C@@H](CCCNC(=N)N)C(=O)N3CCC[C@H]3C(=O)N[C@@H](CC(C)C)C(=O)NCC(=O)N[C@@H](CCCCOCc3ccccc3)C(=O)N[C@@H](CNc3ccc([N+](=O)[O-])cc3[N+](=O)[O-])C(=O)N[C@@H](C)C(=O)N[C@@H](CCCNC(=N)N)C(=O)N[C@@H](CCC(=O)O)C(=O)N[C@@H](CCCNC(=N)N)C(N)=O)cc(=O)oc2c1", "note": "[Compound 20, N-2-[(7-methoxy-2-oxo-2H-chromen-4-yl)acetyl]-L-arginyl-L-prolyl-L-leucylglycyl-6-(benzyloxy)-L-norleucyl-3-[(2,4-dinitrophenyl)amino]-L-alanyl-L-alanyl-L-arginyl-L-alpha-glutamyl-L-argininamide] (Mca-RPLG[X2][Dap](Dnp)ARER-NH2)", "values": [{"measurement": "kcat with MMP-1 (in words)", "setting": "MMP-1", "value": "low kcat or kcat of zero"}, {"measurement": "kcat with MMP-7 (in words)", "setting": "MMP-7", "value": "low kcat or kcat of zero"}]}, {"smiles": "COc1ccc2c(CC(=O)N[C@H](CCCNC(=N)N)C(=O)N3CCC[C@H]3C(=O)N[C@@H](CC(C)C)C(=O)NCC(=O)N[C@@H](CCCCOCc3ccccc3)C(=O)N[C@@H](CNc3ccc([N+](=O)[O-])cc3[N+](=O)[O-])C(=O)N[C@@H](C)C(=O)N[C@H](CCCNC(=N)N)C(=O)N[C@H](CCC(=O)O)C(=O)N[C@H](CCCNC(=N)N)C(N)=O)cc(=O)oc2c1", "note": "[Compound 21, N-2-[(7-methoxy-2-oxo-2H-chromen-4-yl)acetyl]-D-arginyl-L-prolyl-L-leucylglycyl-6-(benzyloxy)-L-norleucyl-3-[(2,4-dinitrophenyl)amino]-L-alanyl-L-alanyl-D-arginyl-D-alpha-glutamyl-D-argininamide] (Mca-[dR]PLG[X2][Dap](Dnp)A[dR][dE][dR]-NH2)", "values": [{"measurement": "kcat with MMP-1 (in words)", "setting": "MMP-1", "value": "low kcat or kcat of zero"}, {"measurement": "kcat with MMP-7 (in words)", "setting": "MMP-7", "value": "low kcat or kcat of zero"}]}, {"smiles": "COc1ccc2c(CC(=O)N[C@H](CCCNC(=N)N)C(=O)N3CCC[C@H]3C(=O)N[C@@H](CC(C)C)C(=O)NCC(=O)N[C@@H](CCCCOc3ccccc3)C(=O)N[C@@H](CNc3ccc([N+](=O)[O-])cc3[N+](=O)[O-])C(=O)N[C@@H](C)C(=O)N[C@H](CCCNC(=N)N)C(=O)N[C@H](CCC(=O)O)C(=O)N[C@H](CCCNC(=N)N)C(N)=O)cc(=O)oc2c1", "note": "[Compound 25, N-2-[(7-methoxy-2-oxo-2H-chromen-4-yl)acetyl]-D-arginyl-L-prolyl-L-leucylglycyl-6-phenoxy-L-norleucyl-3-[(2,4-dinitrophenyl)amino]-L-alanyl-L-alanyl-D-arginyl-D-alpha-glutamyl-D-argininamide] (Mca-[dR]PLG[X1][Dap](Dnp)A[dR][dE][dR]-NH2)", "values": [{"measurement": "kcat with MMP-1 (in words)", "setting": "MMP-1", "value": "low kcat or kcat of zero"}, {"measurement": "kcat with MMP-7 (in words)", "setting": "MMP-7", "value": "low kcat or kcat of zero"}]}, {"smiles": "C[C@H](N)C(=O)O", "note": "[alanine]", "values": [{"measurement": "Log D contribution in a peptide", "setting": "[1]", "value": "−0.27"}]}, {"smiles": "N=C(N)NCCC[C@H](N)C(=O)O", "note": "[arginine]", "values": [{"measurement": "Log D contribution in a peptide", "setting": "[1]", "value": "−1.65"}]}, {"smiles": "NC(=O)C[C@H](N)C(=O)O", "note": "[asparagine]", "values": [{"measurement": "Log D contribution in a peptide", "setting": "[1]", "value": "−0.98"}]}, {"smiles": "N[C@@H](CC(=O)O)C(=O)O", "note": "[aspartic acid]", "values": [{"measurement": "Log D contribution in a peptide", "setting": "[1]", "value": "−2.06"}]}, {"smiles": "N[C@@H](CCC(=O)O)C(=O)O", "note": "[glutamic acid]", "values": [{"measurement": "Log D contribution in a peptide", "setting": "[1]", "value": "−2.19"}]}, {"smiles": "NCC(=O)O", "note": "[glycine]", "values": [{"measurement": "Log D contribution in a peptide", "setting": "[1]", "value": "−0.22"}]}, {"smiles": "N[C@@H](Cc1c[nH]cn1)C(=O)O", "note": "[histidine]", "values": [{"measurement": "Log D contribution in a peptide", "setting": "[1]", "value": "−0.44"}]}, {"smiles": "NCCCC[C@H](N)C(=O)O", "note": "[lysine]", "values": [{"measurement": "Log D contribution in a peptide", "setting": "[1]", "value": "−2.27"}]}, {"smiles": "C[C@@H](O)[C@H](N)C(=O)O", "note": "[threonine]", "values": [{"measurement": "Log D contribution in a peptide", "setting": "[1]", "value": "−0.26"}]}]}
